Measurements taken from ChEMBL document CHEMBL1149789, “SAR and QSAR studies: modelling of new DAPY derivatives” (Eur J Med Chem, 2008).

Legend:
[1] = Partition coefficient, log P of the compound; format: physicochemical; settings: octanol/water
[2] = system: Human immunodeficiency virus; experiment: Inhibition of HIV reverse transcriptase

| SMILES | logP ([1]; read-out: logP) | EC50 [2] [nM] | logP [1] |
| --- | --- | --- | --- |
| C#Cc1cc(C)c(Oc2ccnc(Nc3ccc(C#N)cc3)n2)c(C)c1 | 1.79 | 5.5 |  |
| Cc1cc(C#N)cc(C)c1Nc1ccnc(Nc2ccc(C#N)cc2)n1 | 1.47 | 0.4 |  |
| Cc1cc(C#N)cc(C)c1Oc1nc(Nc2ccc(C#N)cc2)nc(N)c1Br [ETRAVIRINE] | 1.82 | 1.4 |  |
| Cc1cc(C)c(Nc2nc(Nc3ccc(C#N)cc3)ncc2Cl)c(C)c1 | 1.8 | 2.7 |  |
| Cc1cc(C)c(Nc2nc(Nc3ccc(C#N)cc3)ncc2Br)c(C)c1 | 2.07 | 5.5 |  |
| Cc1cc(Cl)cc(Cl)c1Nc1ccnc(Nc2ccc(C#N)cc2)n1 | 1.14 | 1 |  |
| Cc1cc(C#N)cc(C)c1Nc1nc(Nc2ccc(C#N)cc2)ncc1Br | 1.64 | 0.4 |  |
| Cc1cnc(Nc2ccc(C#N)cc2)nc1Nc1c(C)cc(C#N)cc1C | 1.74 | 0.8 |  |
| Cc1cc(C#N)cc(C)c1Oc1nc(Nc2ccc(C#N)cc2)ncc1[N+](=O)[O-] |  | 18 | -0.98 |
| C=Cc1cnc(Nc2ccc(C#N)cc2)nc1Nc1c(C)cc(C#N)cc1C | 2.36 | 2.5 |  |
| Cc1cc(Br)cc(C)c1Sc1ccnc(Nc2ccc(C#N)cc2)n1 | 2.31 | 5.7 |  |
| C#Cc1cnc(Nc2ccc(C#N)cc2)nc1Nc1c(C)cc(C)cc1C | 1.89 |  |  |
| N#Cc1ccc(Nc2nccc(Nc3c(Cl)cc(Cl)cc3Cl)n2)cc1 | 0.77 | 0.7 |  |
| Cc1cc(C#N)cc(C)c1Nc1nc(Nc2ccc(C#N)cc2)ncc1C#N | 1.31 | 0.5 |  |
| Cc1cc(Br)cc(C)c1Nc1ccnc(Nc2ccc(C#N)cc2)n1 | 1.79 | 2.3 |  |
| N#Cc1ccc(Nc2nccc(Nc3c(Br)cc(F)cc3Br)n2)cc1 | 0.94 | 0.6 |  |

| SMILES | logP ([1]; read-out: logP) | EC50 [2] [nM] | logP [1] |
| --- | --- | --- | --- |
| Cc1cc(Br)c(Nc2ccnc(Nc3ccc(C#N)cc3)n2)c(Br)c1 | 1.69 | 0.7 |  |
| Cc1cc(C#N)cc(C)c1Oc1nc(Nc2ccc(C#N)cc2)ncc1N | 0.05 | 1 |  |
| CC(=O)Nc1cnc(Nc2ccc(C#N)cc2)nc1Oc1c(C)cc(C#N)cc1C | -0.12 |  |  |
| Cc1cc(C#N)cc(C)c1Oc1nc(Nc2ccc(C#N)cc2)ncc1Cl | 1.54 | 1.4 |  |
| Cc1cc(C#N)cc(C)c1Oc1nc(Nc2ccc(C#N)cc2)ncc1Br | 1.82 | 1.4 |  |
| Cc1cc(C)c(Nc2nc(Nc3ccc(C#N)cc3)ncc2C)c(C)c1 | 2.17 | 1.7 |  |
| Cc1cc(C#N)cc(C)c1Nc1nc(Nc2ccc(C#N)cc2)ncc1Cl | 1.37 | 1.2 |  |
| Cc1cc(C#N)cc(C)c1Oc1ccnc(Nc2ccc(C#N)cc2)n1 | 1.64 | 1.1 |  |
| Cc1cc(Cl)cc(C)c1Nc1ccnc(Nc2ccc(C#N)cc2)n1 | 1.52 | 2.1 |  |
| Cc1cc(C)c(Nc2ccnc(Nc3ccc(C#N)cc3)n2)c(C)c1 [DAPIVIRINE] | 1.9 | 1 |  |
| Cc1cc(C)c(Sc2ccnc(Nc3ccc(C#N)cc3)n2)c(C)c1 | 2.42 | 3.6 |  |
| Cc1cccc(C)c1Nc1ccnc(Nc2ccc(C#N)cc2)n1 | 1.74 | 0.7 |  |
| Cc1cc(C)c(Nc2nc(Nc3ccc(C#N)cc3)ncc2C#N)c(C)c1 | 1.74 | 1 |  |
| Cc1cc(Br)cc(C)c1Oc1ccnc(Nc2ccc(C#N)cc2)n1 | 1.97 | 2.9 |  |
| Cc1cc(C)c(Oc2ccnc(Nc3ccc(C#N)cc3)n2)c(C)c1 | 2.07 | 2.9 |  |
